{
  "source": "paper PMC6139898",
  "about": "“Engineering xylose metabolism in thraustochytrid T18” (Biotechnology for Biofuels, 2018)",
  "key": {"[1]": {"target": "T1, T18 xylose isomerase (XI) (Thraustochytrium sp. ONC-T18, UniProt A0A385ZBK6)", "T1 construct": "gene xylA", "T1 sequence (A0A385ZBK6 1-439)": "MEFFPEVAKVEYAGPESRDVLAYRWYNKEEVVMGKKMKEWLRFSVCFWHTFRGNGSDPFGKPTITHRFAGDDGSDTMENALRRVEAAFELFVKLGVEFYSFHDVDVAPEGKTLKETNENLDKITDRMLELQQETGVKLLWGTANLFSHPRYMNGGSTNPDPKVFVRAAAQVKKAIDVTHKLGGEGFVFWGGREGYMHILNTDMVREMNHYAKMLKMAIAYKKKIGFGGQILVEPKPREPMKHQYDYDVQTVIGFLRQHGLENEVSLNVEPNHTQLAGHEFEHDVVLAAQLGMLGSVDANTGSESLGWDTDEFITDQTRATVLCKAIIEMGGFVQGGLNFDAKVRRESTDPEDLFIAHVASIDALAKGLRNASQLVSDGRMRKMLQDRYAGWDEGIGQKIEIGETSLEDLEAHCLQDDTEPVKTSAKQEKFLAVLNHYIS", "assay": "HPLC-RI substrate conversion, overnight", "format": "biochemical", "settings": "50 °C, 50 mM HEPES pH 7.4, 10 mM MgCl2, 5 mM MgATP; partly pure fraction"}, "XylA": {"target": "T2, XylA (Escherichia coli, UniProt P00944)", "T2 construct": "full length, N-terminal His tag, expressed in E. coli BL21(DE3)pLysS", "T2 sequence (P00944 1-440)": "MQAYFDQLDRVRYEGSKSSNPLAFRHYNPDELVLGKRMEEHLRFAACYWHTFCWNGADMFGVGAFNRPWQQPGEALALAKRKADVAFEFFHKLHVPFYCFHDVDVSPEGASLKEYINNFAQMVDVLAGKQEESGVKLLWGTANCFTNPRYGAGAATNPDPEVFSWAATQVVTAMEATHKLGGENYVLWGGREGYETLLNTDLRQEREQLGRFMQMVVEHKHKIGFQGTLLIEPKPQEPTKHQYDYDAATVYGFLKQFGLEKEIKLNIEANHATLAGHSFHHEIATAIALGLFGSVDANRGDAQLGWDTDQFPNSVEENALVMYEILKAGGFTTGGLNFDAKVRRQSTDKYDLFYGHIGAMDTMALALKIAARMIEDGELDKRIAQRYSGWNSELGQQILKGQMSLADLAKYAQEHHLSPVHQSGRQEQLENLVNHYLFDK", "assay": "HPLC-RI substrate conversion, overnight", "format": "biochemical", "settings": "30 °C, 50 mM HEPES pH 7.4, 10 mM MgCl2, 5 mM MgATP"}},
  "data": [
    {"smiles": "OC1OC[C@@H](O)[C@H](O)[C@H]1O", "note": "(stereo partly shown) [xylose]", "values": [
      {"measurement": "HPLC-RI substrate conversion, overnight", "setting": "[1]", "result": "Both XylA and T18 xylose isomerase showed increased activity on both sugars"},
      {"measurement": "HPLC-RI substrate conversion, overnight", "setting": "XylA", "result": "Both XylA and T18 xylose isomerase showed increased activity on both sugars"}
    ]},
    {"smiles": "O=C(CO)[C@@H](O)[C@H](O)CO", "note": "[xylulose]", "values": [
      {"measurement": "HPLC-RI substrate conversion, overnight", "setting": "[1]", "result": "Both XylA and T18 xylose isomerase showed increased activity on both sugars"},
      {"measurement": "HPLC-RI substrate conversion, overnight", "setting": "XylA", "result": "Both XylA and T18 xylose isomerase showed increased activity on both sugars"}
    ]}
  ]
}
